Results on five molecules are retold here after ChEMBL document CHEMBL1122505, “Pyrimidine and triazine 3-oxide sulfates: a new family of vasodilators” (1983).

What all share (format): functional, Artery
The test system of experiment [1] is Rattus norvegicus. The experiment is described as follows: Average change in mean arterial blood pressure (mmHg) observed at 4 hr after oral administration at a dose of 14 mg/kg in female Sprague-Dawley rats.
Experiment [2] relates to Rattus norvegicus. As to the kind of experiment: Average change in mean arterial blood pressure (mmHg) observed at 4 hr after oral administration at a dose of 5 mg/kg in female Sprague-Dawley rats.
Experiment [3] has as its system Rattus norvegicus. As to the kind of experiment: Average change in mean arterial blood pressure (mmHg) observed at 4 hr after oral administration at a dose of 50 mg/kg in female Sprague-Dawley rats.
Experiment [4] concerns Rattus norvegicus. The experiment is described as follows: Average change in mean arterial blood pressure (mmHg) observed at 4 hr after oral administration at a dose of 0.15 mg/kg in female Sprague-Dawley rats.

Where a name gives a salt, the structure may show the parent alone.

The molecule `Cc1cc(N2CCOCC2)nc(N)[n+]1OS(=O)(=O)[O-]` registered a Delta blood pressure in the experiment with Rattus norvegicus [1] of -37 mmHg.
In turn, `C=CCN(CC=C)c1nc(N)[n+](OS(=O)(=O)[O-])c(N)n1` gave a Delta blood pressure in the experiment on Rattus norvegicus [2] of -21 mmHg.
Molecule `CNc1cc(N)[n+](OS(=O)(=O)[O-])c(N)n1` displayed a Delta blood pressure in the experiment with Rattus norvegicus [3] of -8 mmHg.
Same read-out and setting: the result for `Cc1cc(N2CCCC2)nc(N)[n+]1OS(=O)(=O)[O-]` reads -39 mmHg.
Turning to `Nc1cc(N2CCCCC2)nc(N)[n+]1OS(=O)(=O)[O-]` [MINOXIDIL SULFATE], in the experiment with Rattus norvegicus [4], the Delta blood pressure is given as -16 mmHg.
